Here are results for 2 compounds from patent US5004749A, “Concentrated aqueous solution of glutaraldehyde and 1,2-benzisothiazolin-3-one” (priority 1989, dated 1991).

One data set concerns microbial contamination. The data set can be described thus: MIC in kaolin slurry with significant microbial spoilage, reduction to less than ten colony forming units/ml (Example 4). The class given is cell-based. As to the method: A sample of kaolin slurry with significant microbial spoilage was dosed with a range of concentrations of 1,2-benzisothiazolin-3-one, glutaraldehyde, and 1,2-benzisothiazolin-3-one plus glutaraldehyde (1:14 weight ratio). A sample was included, antimicrobial free, for control purposes with determinations of the colony forming units/ml. MIC values (in parts per million of Active Ingredient) to reduce microbial contamination to less than ten colony forming units/ml were determined by the absence of detectable growth by dilution plate counts.
(§1) The results for Examples 3 and 4 were quantified with respect to the synergy shown through the application of an equation described in Berenbaum, M.C. "A method for Testing for Synergy with Any Number of Agents" The Journal of Infectious Diseases, Vol 137, No. 2 pp 122-130 (February, 1978). The relevant equation is as follows: [formula]
(§2) If Z is less than 1, synergy is present. If Z equals 1, additive interaction is present. If Z is greater than 1, an antagonistic interaction is present.

The test system of data set [1] is Acinetobacter calcoaceticus, Pseudomonas aeruginosa, Enterobacter cloacae and Escherichia coli. As to the kind of experiment: MIC in calcium carbonate slurry, inoculated weekly, reduction to less than ten colony forming units/ml (Example 3). The data set is classed as cell-based. The conditions noted are these: for MIC: Calcium Carbonate Slurry. As to the method:
Several forty gram samples of a calcium carbonate slurry (Gamma-Fil 90, available from the Georgia Marble Company) which were free of microbial growth, were prepared. These samples were divided into four groups. The first group was dosed with varying amounts of glutaraldehyde (in the form of a 50 percent aqueous solution); the second group was dosed with varying amounts of 1,2-benzisothiazolin-3-one the third group was dosed with varying amounts of glutaraldehyde (in the form of a 50 percent aqueous solution) and of 1,2-benzisothiazolin-3-one (in the form of Proxel® Press Paste) in a 14:1 ratio by weight of glutaraldehyde:BIT a fourth group was left untreated as a control. These samples were each inoculated three times on a weekly basis with an inoculum which contained the following microorganisms: Acinetobacter calcoaceticus, Pseudomonas aeruginosa, Enterobacter cloacae and Escherichia coli. The minimum inhibitory concentration (MIC) values were determined for preservative levels effective in reducing the contaminating microorganisms to less than ten colony forming units/ml for the first three groups. The number of colony forming units/ml in the control group was also determined.
as §1, §2

The format of data set [2] is physicochemical. As to the method:
In order to compare the composition of the present invention with that disclosed in U.S. Pat. No. 4,539,071 (Clifford et al) a stable aqueous composition of isothiazolone, the following experiment was performed. To deionized water were added 0.2 percent cupric nitrate, 9 percent magnesium chloride and 15 percent magnesium nitrate, all in percent by weight.

Another data set in a line: physchem. The class given is physicochemical. On the procedure: A pH 3.2 solution was attained by adding 12.5 ml of 0.2 M acetic acid to 100 ml of deionized water. The pH 4.8 solution was prepared by adding 22.5 ml of 0.2 M acetic acid plus 27.5 ml of 0.2 M sodium acetate brought to a total volume of 100 ml with deionized water. Finally the pH of 6.8 solution was created by adding 4.1 ml of 0.2 M sodium acetate plus 1 drop of 0.2 M acetic acid to 100 ml of deionized water. […] Employing the same buffering agents, solutions with 50% aqueous glutaraldehyde were prepared having pH's of 3.2, 4.8 and 6.8 respectively. A twenty ml solution having a pH of 3.2 was attained with 1.45 ml of acetic acid; the twenty ml solution having a pH of 4.8 contained acetic acid and sodium acetate in a 3:1 weight ratio and the twenty ml solution having a pH of 6.8 contained 1.25 g of sodium acetate. The solubility of BIT in each solution was determined as described above.

Values after ≈ are worked out from the molar mass of the structure shown.

Turning to `O=CCCCC=O` [Glutaraldehyde, glutaraldehyde], the MIC with microbial contamination (24 h, 1 day) was 250 µg/mL; with microbial contamination (48 h, 2 days), 150 µg/mL; with microbial contamination (72 h, 3 days), 200 µg/mL; with microbial contamination (168 h, 7 days) it was 250 µg/mL; in data set [1] (Week 1), 250 µg/mL; in data set [1] (Week 2), 500 µg/mL. The MIC in data set [1] (Week 3) was 500 µg/mL. For the same compound, in data set [1] (calcium carbonate slurry, second and third challenges with microbial insults), the “antimicrobial activity/potency on repeated challenge (in words)” value was “undergoes a reduction in antimicrobial activity”.
`O=c1[nH]sc2ccccc12` [BIT, 1,2-benzisothiazolin-3-one]: the MIC in the data set with microbial contamination (24 h, 1 day) is 178 µg/mL; in the data set on microbial contamination (48 h, 2 days), over 178 µg/mL; in the data set with microbial contamination (72 h, 3 days) it was over 178 µg/mL; in the data set with microbial contamination (168 h, 7 days), 133 µg/mL; in data set [1] (Week 1) it was 285 µg/mL; in data set [1] (Week 2) it was over 570 µg/mL. For the same compound, in data set [1] (Week 3), the minimum inhibitory concentration (MIC) is 380 µg/mL. Further, the “solubility of 1,2-benzisothiazolin-3-one” value in data set [2] was “essentially nil”. For the same compound, the “solubility of 1,2-benzisothiazolin-3-one is increased by the addition of glutaraldehyde” value in the data set “physchem” is “increased considerably”. The solubility stood at 31.8 mg/mL (≈ 210 mM) in the data set “physchem” (buffered 50% aqueous glutaraldehyde, pH 3.2); 33.8 mg/mL (≈ 224 mM) in “physchem” (buffered 50% aqueous glutaraldehyde, pH 4.8); 30.4 mg/mL (≈ 201 mM) in “physchem” (buffered 50% aqueous glutaraldehyde, pH 6.8); 3.2 mg/mL (≈ 21.2 mM) in the data set “physchem” (buffered deionized water, pH 3.2); 1.1 mg/mL (≈ 7.28 mM) in “physchem” (buffered deionized water, pH 4.8); 0.4 mg/mL (≈ 2.65 mM) in the data set “physchem” (buffered deionized water, pH 6.8).
